Data taken from patent US3965139A, “2-Chloro-N-(cyanomethyl)acetanilides” (Diamond Shamrock Corporation, priority 1974, dated 1976).

Assays:
grass species [1] = assay: Greenhouse Preemergence Herbicide Test, grass species; type: in vivo; conditions: two weeks after treatment
Method: To illustrate the preemergence herbicidal efficiency of the N-(cyanomethyl)acetanilides of this invention, test formulations are prepared of representative compounds by mixing 20 ml of an acetone solution containing 0.125 g of the test compound with 20 ml of water containing 0.01 g of Triton X-155 surfactant. The resultant formulations contain 3125 ppm of test compound, 50% by volume of acetone and 0.025% by weight of surfactant. Appropriate lower concentrations are obtained by diluting this formulation with surfactant-acetone solution so that the concentration of adjuvants is maintained at the original levels.
Seeds of three broadleaf and three grass species are planted in soil contained in 10 × 8 × 3 inch aluminum pans filled with 1.5 inches of composted soil. The broadleaf species are pigweed (Amaranthus retroflexus), a velvetleaf (Abutilon theophrasti), and morningglory (Ipomea coccinea); the grasses are red millet (Panicum milliacem), greenfoxtail (Setaria viridis) and Japanese millet (Echinochloa frumentacea).
The pans are then sprayed so that the soil surface is uniformly covered with dilutions of the stock formulation providing dosage rates of the test compounds corresponding to 8, 4, 2, 1, 0.5, and 0.25 lb/A. Two weeks after treatment, percent control (plant kill) at each dosage rate is estimated. The lowest concentration of each compound (lb/A) found to provide 50% or greater control of the grass weeds is as follows: […]

Giant Foxtail = assay: Field Preemergence Test, light sandy soil; type: in vivo; conditions: 3-4 weeks after planting
Text: (§1) Test plots of fertilized, light sandy soil containing 0.7% organic matter are sprayed uniformly with aqueous suspensions prepared from an emulsifiable concentrate containing 12%, by weight, of 2-chloro-N-cyanomethyl-2',6'-diethylacetanilide (the product of Example 1) diluted to provide dosage rates of the test compound corresponding to 2, 1, 0.5, and 0.25 pound per acre (lb/A). The plots are then sown with seeds of the following crop plants: sweet corn, cotton (Coker 413), and soybeans, var. Davis. Seeds of the following weed plants are planted: redroot pigweed, prickly sida, and common lambsquarter (broadleaf species); goosegrass and giant foxtail (grass species).
(§2) Three to four weeks after planting, percent control (plant kill) of the test plants is estimated, from a rating of 0 which denotes no injury to the plant up to 100 which denotes complete destruction. The % weed control exerted by 2-chloro-N-cyanomethyl-2',6'-diethylacetanilide is as follows: […]

Goosegrass = assay: Field Preemergence Test, light sandy soil; type: in vivo; conditions: 3-4 weeks after planting
Text: as §1, §2

Prickly Sida = assay: Field Preemergence Test, light sandy soil; type: in vivo; conditions: 3-4 weeks after planting
Text: as §1, §2

Redroot Pigweed = assay: Field Preemergence Test, light sandy soil; type: in vivo; conditions: 3-4 weeks after planting
Text: as §1, §2

Lambsquarter = assay: Field Preemergence Test, light sandy soil; type: in vivo, common lambsquarter; conditions: 3-4 weeks after planting
Text: as §1, §2

Corn [2] = assay: Field Preemergence Test, phytotoxic effects on crop; type: in vivo, sweet corn; conditions: light sandy soil; for % Crop Kill, Corn: 3-4 weeks after planting
Text: as §1
(§3) Three to four weeks after planting, percent control (plant kill) of the test plants is estimated, from a rating of 0 which denotes no injury to the plant up to 100 which denotes complete destruction. The % weed control exerted by 2-chloro-N-cyanomethyl-2',6'-diethylacetanilide is as follows:
(§4) Phytotoxic effects observed on the crop species is estimated with results as follows: […]

Cotton = assay: as above; type: in vivo, cotton (Coker 413); conditions: light sandy soil; for % Crop Kill, Cotton: 3-4 weeks after planting
Text: as §1, §3, §4

Soybeans [3] = assay: as above; type: in vivo, var. Davis; conditions: light sandy soil; for % Crop Kill, Soybeans: 3-4 weeks after planting
Text: as §1, §3, §4

Corn [4] = assay: Preemergence test in loam-type heavier soil, crop; type: in vivo; conditions: for % Control of Plant Growth, Corn: about three weeks after planting, loam-type heavier soil
Soybeans [5] = assay: Preemergence test in loam-type heavier soil, crop; type: in vivo; conditions: for % Control of Plant Growth, Soybeans: about three weeks after planting, loam-type heavier soil
Text: (§5) This example illustrates the performance of 2-chloro-N-cyanomethyl-2',6'-diethylacetanilide in a different type soil than employed in the previous example. For this test, test plots of a loam-type, heavier soil containing 5.5% organic matter are sprayed uniformly with formulations of the test compound providing dosage rates of 4, 2, and 1 pound per acre (lb/A). The plots are then sown to cotton and soybeans and with seeds of the broadleaf, redroot pigweed, and the grasses, Johnson grass and yellow foxtail, as indicator weed plants.
(§6) Approximately three weeks after planting, the test plots are examined and percent control of plant growth is rated from 0% to 100% as previously described.

Pigweed = assay: Preemergence test in loam-type heavier soil, weed; type: in vivo, redroot pigweed; conditions: about three weeks after planting
Text: as §5, §6

Johnsongrass = assay: Preemergence test in loam-type heavier soil, weed; type: in vivo, Johnson grass; conditions: about three weeks after planting
Text: as §5, §6

Yellow Foxtail = assay: Preemergence test in loam-type heavier soil, weed; type: in vivo; conditions: about three weeks after planting
Text: as §5, §6

grassy-type weeds = assay: Field Preemergence Test, light sandy soil, grasses overall; type: in vivo, goosegrass and giant foxtail
Text: as §1, §2

broadleaf species [6] = assay: Field Preemergence Test, light sandy soil, broadleaf species overall; type: in vivo, redroot pigweed, prickly sida, common lambsquarter
Text: as §1, §2

grass species [7] = assay: Preemergence test in loam-type heavier soil, grasses overall; type: in vivo, Johnson grass and yellow foxtail; conditions: 1-2 lb/A; heavy soil
Text: as §5, §6

broadleaf species [8] = assay: Preemergence test in loam-type heavier soil, broadleaf species; type: in vivo, redroot pigweed; conditions: 1-2 lb/A; heavy soil
Text: as §5, §6

Q: What does the source list for `CCc1cccc(CC)c1N(CC#N)C(=O)CCl` [Example 1, 2-chloro-N-cyanomethyl-2',6'-diethylacetanilide]?
A: Minimum Dosage Providing at Least 50% Preemergence Control of Grass Species (grass species [1]): 0.50 lb/A; % Weed Control, Giant Foxtail (Giant Foxtail; 0.25 lb/A): 0%; % Weed Control, Giant Foxtail (Giant Foxtail; 0.5 lb/A): 27%; % Weed Control, Giant Foxtail (Giant Foxtail; 1 lb/A): 65%; % Weed Control, Giant Foxtail (Giant Foxtail; 2 lb/A): 82%; % Weed Control, Goosegrass (Goosegrass; 0.25 lb/A): 63%; % Weed Control, Goosegrass (Goosegrass; 0.5 lb/A): 88%; % Weed Control, Goosegrass (Goosegrass; 1 lb/A): 95%; % Weed Control, Goosegrass (Goosegrass; 2 lb/A): 99%; % Weed Control, Prickly Sida (Prickly Sida; 0.25 lb/A): 0%; % Weed Control, Prickly Sida (Prickly Sida; 0.5 lb/A): 0%; % Weed Control, Prickly Sida (Prickly Sida; 1 lb/A): 12%; % Weed Control, Prickly Sida (Prickly Sida; 2 lb/A): 40%; % Weed Control, Redroot Pigweed (Redroot Pigweed; 0.25 lb/A): 0%; % Weed Control, Redroot Pigweed (Redroot Pigweed; 0.5 lb/A): 33%; % Weed Control, Redroot Pigweed (Redroot Pigweed; 1 lb/A): 55%; % Weed Control, Redroot Pigweed (Redroot Pigweed; 2 lb/A): 90%; % Weed Control, Lambsquarter (Lambsquarter; 0.25 lb/A): 0%; % Weed Control, Lambsquarter (Lambsquarter; 0.5 lb/A): 20%; % Weed Control, Lambsquarter (Lambsquarter; 1 lb/A): 60%; % Weed Control, Lambsquarter (Lambsquarter; 2 lb/A): 88%; % Crop Kill, Corn (Corn [2]; 1 lb/A): 0%; % Crop Kill, Corn (Corn [2]; 2 lb/A): 0%; tolerance of corn (Corn [2]; 2 lb/A): tolerant; % Crop Kill, Cotton (Cotton; 1 lb/A): 0%; % Crop Kill, Cotton (Cotton; 2 lb/A): 3%; phytotoxicity effects on cotton (Cotton; 2 lb/A): minimal phytotoxicity effects; % Crop Kill, Soybeans (Soybeans [3]; 1 lb/A): 0%; % Crop Kill, Soybeans (Soybeans [3]; 2 lb/A): 0%; tolerance of soybeans (Soybeans [3]; 2 lb/A): tolerant; injury to corn stand (Corn [4]; 1-2 lb/A, heavy soil): noninjurious; % Control of Plant Growth, Corn (Corn [4]; 1 lb/A): 0%; % Control of Plant Growth, Corn (Corn [4]; 2 lb/A): 0%; % Control of Plant Growth, Corn (Corn [4]; 4 lb/A): 10%; injury to soybean stand (Soybeans [5]; 1-2 lb/A, heavy soil): noninjurious; % Control of Plant Growth, Soybeans (Soybeans [5]; 1 lb/A): 0%; % Control of Plant Growth, Soybeans (Soybeans [5]; 2 lb/A): 0%; % Control of Plant Growth, Soybeans (Soybeans [5]; 4 lb/A): 5%; % Control of Plant Growth, Pigweed (Pigweed; 1 lb/A): 0%; % Control of Plant Growth, Pigweed (Pigweed; 2 lb/A): 0%; % Control of Plant Growth, Pigweed (Pigweed; 4 lb/A): 40%; % Control of Plant Growth, Johnsongrass (Johnsongrass; 1 lb/A): 60%; % Control of Plant Growth, Johnsongrass (Johnsongrass; 2 lb/A): 80%; % Control of Plant Growth, Johnsongrass (Johnsongrass; 4 lb/A): 80%; % Control of Plant Growth, Yellow Foxtail (Yellow Foxtail; 1 lb/A): 90%; % Control of Plant Growth, Yellow Foxtail (Yellow Foxtail; 2 lb/A): 95%; % Control of Plant Growth, Yellow Foxtail (Yellow Foxtail; 4 lb/A): 95%; control of grassy-type weeds (grassy-type weeds): good control; broadleaf weed control in a light, sandy soil (broadleaf species [6]; 1-2 lb/A): good broadleaf weed control; herbicidal activity against two of the broadleaf species (broadleaf species [6]; 2 lb/A): significant herbicidal activity; selectivity for controlling the grass species (grass species [7]): selective for controlling the grass species; activity for controlling the broadleaf species (broadleaf species [8]): no activity

Q: `Cc1cccc(N(CC#N)C(=O)CCl)c1` [Example 8, 2-chloro-N-cyanomethyl-3'-methylacetanilide] was tested. Which “Minimum Dosage Providing at Least 50% Preemergence Control of Grass Species” value (grass species [1]) did it give?
A: 0.50 lb/A

Q: How did the “Minimum Dosage Providing at Least 50% Preemergence Control of Grass Species” value (grass species [1]) turn out when `N#CCN(C(=O)CCl)c1ccccc1Cl` [Example 9, 2,2'-dichloro-N-(cyanomethyl)acetanilide] was run?
A: 0.50 lb/A

Q: For `Cc1cccc(C)c1N(CC#N)C(=O)CCl` [Example 10, 2-chloro-N-cyanomethyl-2',6'-dimethylacetanilide], which “Minimum Dosage Providing at Least 50% Preemergence Control of Grass Species” value (grass species [1]) is on record?
A: 0.25 lb/A

Q: For `CC(C)c1ccccc1N(CC#N)C(=O)CCl` [Example 11, 2-chloro-N-cyanomethyl-2'-isopropylacetanilide], which “Minimum Dosage Providing at Least 50% Preemergence Control of Grass Species” value (grass species [1]) is on record?
A: 1.00 lb/A

Q: For `CC(C)c1cccc(C(C)C)c1N(CC#N)C(=O)CCl` [Example 12, 2-chloro-N-cyanomethyl-2',6'-diisopropylacetanilide], which “Minimum Dosage Providing at Least 50% Preemergence Control of Grass Species” value (grass species [1]) is on record?
A: 0.50 lb/A

Q: With `COc1ccccc1N(CC#N)C(=O)CCl` [Example 13, 2-chloro-N-cyanomethyl-2'-methoxyacetanilide] as the compound, how does the “Minimum Dosage Providing at Least 50% Preemergence Control of Grass Species” value (grass species [1]) read?
A: 0.50 lb/A

Q: `CCc1ccccc1N(CC#N)C(=O)CCl` [Example 14, 2-chloro-N-cyanomethyl-2'-ethylacetanilide] was tested. Which “Minimum Dosage Providing at Least 50% Preemergence Control of Grass Species” value (grass species [1]) did it give?
A: 0.50 lb/A

Q: `N#CCN(C(=O)CCl)c1ccccc1Br` [Example 15, 2'-bromo-2-chloro-N-(cyanomethyl)acetanilide] was tested. Which “Minimum Dosage Providing at Least 50% Preemergence Control of Grass Species” value (grass species [1]) did it give?
A: 1.00 lb/A
